Source: PubChem BioAssay AID1963868 (Molecular Pharmacology Branch, DTP, NCI, 2024)

Tested on: KRAS PDC tumor spheroids (HUVEC+MSC), viability
Assay: Anticancer human tumor 254851-301-R-J1-PDC patient-derived colon carcinoma cell line growth inhibition [KRAS2]
Settings: for IC50: curve of first compound; for viability, T/C: stronger effect = lower value
Procedure, shortened: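 KRAS-mutant tumor cells were grown as spheroids with HUVEC endothelial cells and human MSCs as stroma. Targeted agents were tested alone and with KRAS pathway inhibitors. Doses started at or near clinical Cmax, or 10 microM, descending half-log.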

[1] = second compound 0.1 µM, first compound 0.0316 µM
[2] = second compound 0.1 µM, first compound 0.1 µM
[3] = second compound 0.1 µM, first compound 0.316 µM
[4] = second compound 0.1 µM, first compound 1 µM
[5] = second compound 0.1 µM, first compound 3.16 µM
[6] = second compound 0.1 µM, first compound 10 µM
[7] = second compound 0.316 µM, first compound 0.0316 µM
[8] = second compound 0.316 µM, first compound 0.1 µM
[9] = second compound 0.316 µM, first compound 0.316 µM
[10] = second compound 0.316 µM, first compound 1 µM
[11] = second compound 0.316 µM, first compound 3.16 µM
[12] = second compound 0.316 µM, first compound 10 µM
[13] = second compound 1 µM, first compound 0.0316 µM
[14] = second compound 1 µM, first compound 0.1 µM
[15] = second compound 1 µM, first compound 0.316 µM
[16] = second compound 1 µM, first compound 1 µM
[17] = second compound 1 µM, first compound 3.16 µM
[18] = second compound 1 µM, first compound 10 µM
[19] = second compound 3.16 µM, first compound 0.0316 µM
[20] = second compound 3.16 µM, first compound 0.1 µM
[21] = second compound 3.16 µM, first compound 0.316 µM
[22] = second compound 3.16 µM, first compound 1 µM
[23] = second compound 3.16 µM, first compound 3.16 µM
[24] = second compound 3.16 µM, first compound 10 µM
[25] = second compound 10 µM, first compound 0.0316 µM
[26] = second compound 10 µM, first compound 0.1 µM
[27] = second compound 10 µM, first compound 0.316 µM
[28] = second compound 10 µM, first compound 1 µM
[29] = second compound 10 µM, first compound 3.16 µM
[30] = second compound 10 µM, first compound 10 µM
[31] = second compound 0.1 µM, first compound 0.01 µM
[32] = second compound 0.316 µM, first compound 0.01 µM
[33] = second compound 1 µM, first compound 0.01 µM
[34] = second compound 3.16 µM, first compound 0.01 µM
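Note: spheroids exposed to compounds for seven days before readout.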
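Throughout, for viability, T/C: 100% = DMSO vehicle control luminescence of the spheroids.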

SMILES | IC50 (second compound 0.1 µM) | IC50 (second compound 0.316 µM) | IC50 (second compound 1 µM) | IC50 (second compound 3.16 µM) | viability, T/C [1] | viability, T/C [2] | viability, T/C [3] | viability, T/C [4] | viability, T/C [5] | viability, T/C [7] | viability, T/C [8] | viability, T/C [9] | viability, T/C [10] | viability, T/C [11] | viability, T/C [13] | viability, T/C [14] | viability, T/C [15] | viability, T/C [16] | viability, T/C [17] | viability, T/C [19] | also measured
Cn1nccc1Nc1nccc(-c2cc3c(s2)C(C)(C)N(CCN2CCOCC2)C3=O)n1 + CC1OCC2(CCN(c3cnc(Sc4ccnc(N)c4Cl)c(N)n3)CC2)C1N | 1720 nM | 1810 nM | 1290 nM | 469 nM | 97.6% | 98.1% | 100% | 86.9% | 8.68% | 83.8% | 86.8% | 85.3% | 69.8% | 31.1% | 77.4% | 83.7% | 81.8% | 61.1% | 11.1% | 68% | IC50 (second compound 10 µM): 422 nM; viability, T/C [6]: 4.09%; viability, T/C [12]: 4.06%; viability, T/C [18]: 3.68%; viability, T/C [20]: 77.5%; viability, T/C [21]: 75.8%; viability, T/C [22]: 4.42%; viability, T/C [23]: 2.57%; viability, T/C [24]: 1.97%; viability, T/C [25]: 64%; viability, T/C [26]: 79.5%; viability, T/C [27]: 63%; viability, T/C [28]: 10.3%; viability, T/C [29]: 3.18%; viability, T/C [30]: 2.52%
CC(C)NCC(C(=O)N1CCN(c2ncnc3c2C(C)CC3O)CC1)c1ccc(Cl)cc1 (stereo not given) + CNCc1ccccc1-c1csc(C(C)Nc2nc(C)nc3cc(OC)c(OC)cc23)c1 | > 10000 nM | > 10000 nM | > 10000 nM | > 10000 nM | 105% | 99.1% | 93.3% | 92% | 99.1% | 107% | 111% | 93.4% | 89.5% | 95.6% | 94.8% | 94% | 80.3% | 84.5% | 83.2% | 78.6% | IC50 (second compound 10 µM): < 31.6 nM; viability, T/C [6]: 92.1%; viability, T/C [12]: 93.5%; viability, T/C [18]: 89.4%; viability, T/C [20]: 67.8%; viability, T/C [21]: 56%; viability, T/C [22]: 73.1%; viability, T/C [23]: 56.5%; viability, T/C [24]: 52.6%; viability, T/C [25]: 0.18%; viability, T/C [26]: 0.19%; viability, T/C [27]: 0.17%; viability, T/C [28]: 0.17%; viability, T/C [29]: 0.16%; viability, T/C [30]: 0.22%
CC1COCCN1c1cc(-c2ccnn2C)c2ccnc(-c3ccn[nH]3)c2n1 (stereo not given) + COc1cc2nc(C)nc(NC(C)c3cc(N)cc(C(F)(F)F)c3)c2cc1OC1CCOC1 | 37.4 nM | 425 nM | 350 nM | 114 nM | 46.4% | 32.6% | 42.3% | 36.8% | 14.2% | 112% | 81% | 58.5% | 31.8% | 25% | 104% | 77% | 50.5% | 38% | 24% | 64.3% | IC50 (second compound 10 µM): 120 nM; viability, T/C [31]: 70.2%; viability, T/C [32]: 99.8%; viability, T/C [33]: 103%; viability, T/C [34]: 80%; viability, T/C [20]: 56.3%; viability, T/C [21]: 29.3%; viability, T/C [22]: 17.9%; viability, T/C [23]: 25.7%; viability, T/C (second compound 10 µM, first compound 0.01 µM): 99.8%; viability, T/C [25]: 92%; viability, T/C [26]: 51.3%; viability, T/C [27]: 33.5%; viability, T/C [28]: 21.8%; viability, T/C [29]: 20.9%
CC(=O)OC12COC1CC(O)C1(C)C(=O)C(O)C3=C(C)C(OC(=O)C(O)C(NC(=O)OC(C)(C)C)c4ccccc4)CC(O)(C(OC(=O)c4ccccc4)C21)C3(C)C (stereo not given) + C=CC(=O)N1CCN(c2nc(OCC3CCCN3C)nc3c2CCN(c2cccc4cccc(C)c24)C3)CC1CC#N | 198 nM | 163 nM | 140 nM | 203 nM | 91.2% | 61.4% | 43% | 27.3% | 25.6% | 88% | 60.8% | 35.4% | 26.5% | 24.3% | 94.5% | 56.2% | 34% | 24.4% | 22.9% | 86.7% | IC50 (second compound 0.0316 µM): 206 nM; viability, T/C (second compound 0.0316 µM, first compound 0.01 µM): 102%; viability, T/C (second compound 0.0316 µM, first compound 0.0316 µM): 95.9%; viability, T/C (second compound 0.0316 µM, first compound 0.1 µM): 69.3%; viability, T/C (second compound 0.0316 µM, first compound 0.316 µM): 38.4%; viability, T/C (second compound 0.0316 µM, first compound 1 µM): 29%; viability, T/C (second compound 0.0316 µM, first compound 3.16 µM): 26.1%; viability, T/C [31]: 99.1%; viability, T/C [32]: 98.1%; viability, T/C [33]: 93%; viability, T/C [34]: 94.3%; viability, T/C [20]: 69.1%; viability, T/C [21]: 38.5%; viability, T/C [22]: 24.2%; viability, T/C [23]: 23.7%
